ChEMBL document CHEMBL5620364, “Structure-affinity relationships of stereoisomers of norbenzomorphan-derived σ2R/TMEM97 modulators” (Eur J Med Chem, 2023)

Assays:
[1] = target: T1, Sigma intracellular receptor 2 (Rattus norvegicus, UniProt Q5U3Y7); experiment: biochemical
T1 sequence (Q5U3Y7 whole entry): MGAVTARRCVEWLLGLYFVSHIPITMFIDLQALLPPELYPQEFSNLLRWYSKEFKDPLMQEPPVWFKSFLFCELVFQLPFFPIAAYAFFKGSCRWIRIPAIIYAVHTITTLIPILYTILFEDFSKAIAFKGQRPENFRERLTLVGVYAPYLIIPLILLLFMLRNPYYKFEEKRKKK
Description: Binding affinity to sigma 2 receptor in rat PC12 cells assessed as inhibition constant

[2] = target: T2, Sigma intracellular receptor 2 (Homo sapiens, UniProt Q5BJF2); experiment: Displacement of [3H](+)-ditolylguanidine from human sigma 2 receptor transfected in human HEK293T cells assessed as inhibition constant in presence of (+)-pentazocine by radioligand competition binding assay; format: cell-based, HEK293
T2 sequence (Q5BJF2 whole entry): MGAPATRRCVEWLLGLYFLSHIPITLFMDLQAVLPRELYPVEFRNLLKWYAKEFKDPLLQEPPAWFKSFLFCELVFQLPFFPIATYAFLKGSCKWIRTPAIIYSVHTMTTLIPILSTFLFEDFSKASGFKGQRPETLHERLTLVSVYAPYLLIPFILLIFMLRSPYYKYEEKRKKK

[3] = target: T3, Sigma non-opioid intracellular receptor 1 (Homo sapiens, UniProt Q99720); experiment: Displacement of [3H](+)-pentazocine from sigma 1 receptor in HEK293 cells assessed as inhibition constant by radioligand competition binding assay; format: cell-based
T3 sequence (Q99720 whole entry): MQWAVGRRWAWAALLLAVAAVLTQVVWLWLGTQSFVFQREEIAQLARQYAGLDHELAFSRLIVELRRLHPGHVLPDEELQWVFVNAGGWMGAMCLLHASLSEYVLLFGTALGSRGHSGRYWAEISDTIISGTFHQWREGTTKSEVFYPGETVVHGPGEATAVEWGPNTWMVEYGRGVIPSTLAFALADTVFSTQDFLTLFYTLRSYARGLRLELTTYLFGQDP

[4] = target: T2, Sigma intracellular receptor 2; experiment: Binding affinity to sigma 2 receptor (unknown origin) assessed as inhibition constant
[5] = target: T3, Sigma non-opioid intracellular receptor 1; experiment: Binding affinity to sigma 1 receptor (unknown origin) assessed as inhibition constant

| SMILES | Ki [1] | Ki [2] | Ki [3] | Ki [4] | Ki [5] |
| --- | --- | --- | --- | --- | --- |
| Clc1ccc2c(c1)C1CC2CCCN1CCc1ccccc1 (configuration not stated) | 0.248 µM |  |  |  |  |
| O=C(OCc1ccccc1)N1CC[C@H]2C[C@@H]1c1cc(N3CCN(C4CCC4)CC3)ccc12 |  | 0.0343 µM | 0.0507 µM |  |  |
| O=C(OCc1ccc(C(F)(F)F)cc1)N1CC[C@@H]2C[C@H]1c1cc(N3CCN(CCCF)CC3)ccc12 |  | 0.0209 µM | 0.0679 µM |  |  |
| CCN(CC)C(=O)CCN1CCN(c2ccc3c(c2)[C@@H]2C[C@H]3CCN2C(=O)OCc2ccccc2)CC1 |  |  |  | 0.0124 µM | 0.197 µM |
| O=C(OCc1ccccc1)N1CC[C@@H]2C[C@H]1c1cc(N3CCN(C4CCC4)CC3)ccc12 |  | 0.0124 µM | 0.0329 µM |  |  |
| O=C(/C=C/c1ccccc1)N1CC[C@@H]2C[C@H]1c1cc(N3CCN(CCCF)CC3)ccc12 |  |  | 0.185 µM | 0.0533 µM |  |
| CN1CC(C(=O)N2CCN(c3ccc4c(c3)[C@@H]3C[C@H]4CCN3C(=O)OCc3ccccc3)CC2)C1 |  |  |  | 0.0352 µM | 0.0531 µM |
| CNCCC(=O)N1CCN(c2ccc3c(c2)[C@@H]2C[C@H]3CCN2C(=O)OCc2ccccc2)CC1 |  |  |  | 0.11 µM | 0.189 µM |
| O=C(OCc1cccc(F)c1)N1CC[C@@H]2C[C@H]1c1cc(N3CCN(CCCF)CC3)ccc12 |  | 0.0212 µM | 0.0172 µM |  |  |
| CN(C)C1CCN(c2ccc3c(c2)[C@@H]2C[C@H]3CCN2C(=O)OCc2ccccc2)CC1 |  |  | 0.14 µM | 0.0315 µM |  |
| O=C(OCc1ccc(Cl)cc1)N1CC[C@@H]2C[C@H]1c1cc(N3CCN(CCCF)CC3)ccc12 |  | 0.0271 µM | 0.0949 µM |  |  |
| CCCCN1C[C@@H]2CN(c3ccc4c(c3)[C@@H]3C[C@H]4CCN3C(=O)OCc3ccccc3)C[C@@H]2C1 |  | 0.0284 µM | 0.0502 µM |  |  |
| O=C(CCc1ccccc1)N1CC[C@@H]2C[C@H]1c1cc(N3CCN(CCCF)CC3)ccc12 |  |  | 0.0576 µM | 0.397 µM |  |
| O=C(OCc1ccccc1)N1CC[C@@H]2C[C@H]1c1cc(N3CC4CCC(C3)N4CCCF)ccc12 |  | 0.0177 µM | 0.0704 µM |  |  |
| CN(C)CCCOC1CN(c2ccc3c(c2)[C@@H]2C[C@H]3CCN2C(=O)OCc2ccccc2)C1 |  | 0.0578 µM | 0.118 µM |  |  |

Other lines, results leading:

| Ki [1] | Ki [2] | Ki [3] | Ki [4] | Ki [5] | SMILES |
| --- | --- | --- | --- | --- | --- |
|  | 0.0222 µM | 0.0117 µM |  |  | O=C(OCc1ccccc1)N1CC[C@@H]2C[C@H]1c1cc(N3CCCN(CCCF)CC3)ccc12 |
|  |  | 0.0941 µM | 0.0244 µM |  | CN1CC(CN2CCN(c3ccc4c(c3)[C@@H]3C[C@H]4CCN3C(=O)OCc3ccccc3)CC2)C1 |
|  | 0.0243 µM | 0.0817 µM |  |  | O=C(OCc1ccccc1)N1CC[C@H]2C[C@@H]1c1cc(N3CCN(CCCF)CC3)ccc12 |
|  |  |  | 0.008 µM | 0.0592 µM | COCCCN1CCN(c2ccc3c(c2)[C@@H]2C[C@H]3CCN2C(=O)OCc2ccccc2)CC1 |
|  | 0.129 µM | 0.312 µM |  |  | COCCN1CCN(c2ccc3c(c2)[C@H]2C[C@@H]3CCN2C(=O)OCc2ccccc2)CC1 |
|  | 0.0753 µM | 0.51 µM |  |  | O=C(OCc1ccccc1)N1CC[C@@H]2C[C@H]1c1cc(N3CCN(CCO)CC3)ccc12 |
|  | 0.047 µM | 0.193 µM |  |  | COCCN1CCN(c2ccc3c(c2)[C@@H]2C[C@H]3CCN2C(=O)OCc2ccccc2)CC1 |
|  |  |  | 0.052 µM | 0.0834 µM | CN(C)CCN1CCN(c2ccc3c(c2)[C@@H]2C[C@H]3CCN2C(=O)OCc2ccccc2)CC1 |
|  | 0.201 µM | 1.74 µM |  |  | O=C(OCc1ccccc1)N1CC[C@H]2C[C@@H]1c1cc(N3CCN(CCO)CC3)ccc12 |
|  |  |  | 0.0609 µM | 0.173 µM | CNCCN1CCN(c2ccc3c(c2)[C@@H]2C[C@H]3CCN2C(=O)OCc2ccccc2)CC1 |
|  | 0.0092 µM | 0.0377 µM | 0.0092 µM |  | O=C(OCc1ccccc1)N1CC[C@@H]2C[C@H]1c1cc(N3CCN(CCCF)CC3)ccc12 |
